{"source": "patent US11839210B1", "about": "“Plant growth promoter with strigolactones regulation activities” (King Abdullah University of Science and Technology, priority 2017, dated 2023)", "key": {"D17": {"tested_on": "D17", "experiment": "qRT-PCR of D17 gene expression in rice roots after zaxinone treatment", "type": "in vivo, rice (Oryza sativa Nipponbare)", "details": "−Pi, 6 h", "experimental": "(§1) For the analysis of SL transcript levels in the zas mutant, one week-old seedlings were grown hydroponically in half-strength modified Hoagland nutrient solution with K2HPO4·2H2O (+Pi) and without K2HPO4·2H2O (−Pi) for 7 days. Seedlings were further treated with zaxinone for 6 h and tissues were collected.\n(§2) Total RNA was extracted from the roots and shoots using a Qiagen Plant RNeasy Kit according to the manufacturer's instruction. cDNA was synthesized from 1 μg of total RNA using iScript cDNA Synthesis Kit (BIO-RAD Laboratories, Inc, 2000 Alfred Nobel Drive, Hercules, CA, Cat. No #170-8890) according to instructions in the user manual. For mycorrhizal samples, single-strand cDNA was synthesized from 1 μg of total RNA using Super-Script II (Invitrogen) according to instructions in the user manual. Primers used for real-time quantitative RT-PCR (qRT-PCR) analysis are listed below in Table 3. qRT-PCR was performed using SYBR Green Master Mix (Applied Biosystems; www.lifetechnologies.com) in a StepOnePlus (Life Technologies, Carlsbad, CA, USA). For mycorrhizal samples, qRT-PCR was performed using a Rotor-Gene Q 5plex HRM Platform (Qiagen). The 2-ΔCt method was used to calculate the relative gene expression levels and rice Ubiquitin (OsUBQ or OsRubQ1) gene was used as the internal control to normalize target gene expression.\n(§3) 14-day-old rice seedlings were transferred to new hydroponic pots containing fresh media with or without chemicals for 6 hours. SL biosynthetic (D27, D10, D17 and MAX1-Os900) gene expression were determined under −Pi conditions (phosphate deficient) with zaxinone (2.5 and 5 μM) treatment of both Nipponbare wild-type (WT) rice roots and zas mutant rice roots. The expression levels (1301) were detected by quantitative RT-PCR. Ubiquitin was used as a reference gene. Mock treatment (control) treatment consisted of 0.1% acetone. Bars (1302) show comparisons between the treatments and represent mean±SD (n=3). Decrease in SLs levels in the plants treated with zaxinone ranged from approximately 40% to 70%."}, "D10": {"tested_on": "D10", "experiment": "qRT-PCR of D10 gene expression in rice roots after zaxinone treatment", "type": "in vivo, rice (Oryza sativa Nipponbare)", "details": "−Pi, 6 h", "experimental": "as §1, §2, §3"}, "[1]": {"tested_on": "Shiokari wild-type and ccd mutant seedlings (d17, d10, d3)", "experiment": "Zaxinone effect on root phenotypes of Shiokari wild-type and ccd mutant seedlings", "type": "in vivo, rice (Shiokari)", "experimental": "For investigation of the zaxinone effect on CCD mutant phenotypes, one week-old seedlings were grown hydroponically in Hoagland nutrient solution containing K2HPO4·2H2O (+Pi) for 3 weeks with 2.5 μM zaxinone treatment or Mock treatment (0.1% acetone). The solution was changed every other day, adding the chemical at each renewal. Plants grown without zaxinone served as the controls and phenotypic data were recorded.\nThe effect of zaxinone (2.5 μM) on root phenotypes of hydroponically grown Shiokari wild-type and ccd mutant seedlings was also studied. FIG. 16D is a visual determination of root growth with (2.5 μM) zaxinone added to the growth medium and without zaxinone (control) for Shiokari wild-type seedlings and ccd mutant seedlings, d17, d10 and d3. The roots of seedlings grown with zaxinone were visually determined to be increased over the controls, with the wild-type (WT) showing the greatest increase. The visual results are confirmed by the root length and root biomass measurements seen in graphs FIG. 16D."}, "D27": {"tested_on": "D27", "experiment": "qRT-PCR of D27 gene expression in rice roots after zaxinone treatment", "type": "in vivo, rice (Oryza sativa Nipponbare)", "details": "−Pi, 6 h", "experimental": "as §1, §2, §3"}, "MAX1-Os900": {"tested_on": "MAX1-Os900", "experiment": "qRT-PCR of MAX1-Os900 gene expression in rice roots after zaxinone treatment", "type": "in vivo, rice (Oryza sativa Nipponbare)", "details": "−Pi, 6 h", "experimental": "as §1, §2, §3"}, "[2]": {"tested_on": "mycorrhizal wild-type and zas mutant rice plants", "experiment": "Zaxinone effect on mycorrhizal rice plants (phenotype and AM colonization)", "type": "in vivo, Oryza sativa Nipponbare", "experimental": "Seeds of WT (cv. Nipponbare) and zas mutant were germinated in pots containing sand and incubated for 10 days in a growth chamber under conditions having a 14 h light (23° C.)/10 h dark (21° C.) cycle. Plants used for mycorrhization were inoculated with Funelliformis mosseae (BEG 12, MycAgroLab, France) or Rhizophagus irregularis (INOQ GmbH, Germany) Both fungi inocula (25%) were mixed with sterile quartz sand and used for colonization. Plants were watered with a modified Long-Ashton (LA) solution containing 3.2 μM Na2HPO4·12H2O and were grown in a growth chamber under the 14 h light (24° C.)/10 h dark (20° C.) regime.\nWild-type and zas mycorrhizal plants were grown in sand and watered twice a week with different concentrations of zaxinone (5 μM; 0.5 μM; 50 nM) directly applied in the Long Ashton nutrient solution. Data were collected 35 days post germination (dpg).\nWild-type and zas mycorrhizal roots were stained with 0.1% cotton blue in lactic acid and the estimation of mycorrhizal parameters was performed using MYCOCALC. For the molecular analyses, roots were immediately frozen in liquid nitrogen and stored at −80° C.\nMycorrizhal plants were grown in sand and watered with Long Ashton solution (3.2 μM Pi) for five weeks post AM fungus inoculation. FIGS. 23A-23F show the effect of twice a week treatment with zaxinone (5 μM) for wild-type (WT) and zas mutant (zas) plants. Data are means±SE, n=9 plants. Different letters above the bars indicate significant differences according to Tukey's test (P<0.05)."}, "[3]": {"details": "WT rice roots, 2.5 μM zaxinone, WT mock approx. 1.0"}, "[4]": {"details": "WT rice roots, 5.0 μM zaxinone, WT mock approx. 1.0"}, "[5]": {"details": "zas mutant rice roots, 2.5 μM zaxinone"}, "[6]": {"details": "zas mutant rice roots, 2.5 μM zaxinone, zas mock approx. 2.5"}, "[7]": {"details": "zas mutant rice roots, 5.0 μM zaxinone"}, "[8]": {"details": "zas mutant rice roots, 5.0 μM zaxinone, zas mock approx. 2.5"}}}
{"smiles": "CC(=O)/C=C/C=C(C)/C=C/C1=C(C)C[C@@H](O)CC1(C)C", "note": "[zaxinone, 3-OH-β-apo-13-carotenone]", "values": [{"measurement": "decrease of D17 relative expression vs mock", "setting": "D17; WT rice roots, 2.5 μM zaxinone", "result": "approximately 75%"}, {"measurement": "D17 relative expression", "setting": "D17; [3]", "result": "approximately 0.25"}, {"measurement": "decrease of D17 relative expression vs mock", "setting": "D17; WT rice roots, 5.0 μM zaxinone", "result": "~70", "unit": "%"}, {"measurement": "D17 relative expression", "setting": "D17; [4]", "result": "approximately 0.3"}, {"measurement": "decrease of D17 relative expression vs mock", "setting": "D17; [5]", "result": "approximately 60%"}, {"measurement": "D17 relative expression", "setting": "D17; [6]", "result": "approximately 1.0"}, {"measurement": "decrease of D17 relative expression vs mock", "setting": "D17; [7]", "result": "~68", "unit": "%"}, {"measurement": "D17 relative expression", "setting": "D17; [8]", "result": "approximately 0.8"}, {"measurement": "decrease of D10 relative expression vs mock", "setting": "D10; WT rice roots, 2.5 μM zaxinone", "result": "approximately 75%"}, {"measurement": "D10 relative expression", "setting": "D10; [3]", "result": "approximately 0.25"}, {"measurement": "decrease of D10 relative expression vs mock", "setting": "D10; WT rice roots, 5.0 μM zaxinone", "result": "~70", "unit": "%"}, {"measurement": "D10 relative expression", "setting": "D10; [4]", "result": "approximately 0.3"}, {"measurement": "decrease of D10 relative expression vs mock", "setting": "D10; [5]", "result": "approximately 60%"}, {"measurement": "D10 relative expression", "setting": "D10; [6]", "result": "approximately 1.0"}, {"measurement": "decrease of D10 relative expression vs mock", "setting": "D10; [7]", "result": "~68", "unit": "%"}, {"measurement": "D10 relative expression", "setting": "D10; [8]", "result": "approximately 0.8"}, {"measurement": "growth of roots in SL deficient mutants", "setting": "[1]; SL biosynthesis and perception mutants", "result": "did not promote the growth of roots"}, {"measurement": "root growth (root length and root biomass)", "setting": "[1]; Shiokari wild-type and d17, d10, d3 seedlings, hydroponic, 2.5 μM zaxinone", "result": "increasing the root growth for all of the seedlings"}, {"measurement": "decrease of D27 relative expression vs mock", "setting": "D27; WT rice roots, 2.5 μM zaxinone", "result": "approximately 50%"}, {"measurement": "D27 relative expression", "setting": "D27; [3]", "result": "approximately 0.5"}, {"measurement": "decrease of D27 relative expression vs mock", "setting": "D27; WT rice roots, 5.0 μM zaxinone", "result": "~75", "unit": "%"}, {"measurement": "D27 relative expression", "setting": "D27; [4]", "result": "approximately 0.25"}, {"measurement": "decrease of D27 relative expression vs mock", "setting": "D27; [5]", "result": "approximately 63%"}, {"measurement": "D27 relative expression", "setting": "D27; zas mutant rice roots, 2.5 μM zaxinone, zas mock approx. 3.25", "result": "approximately 1.2"}, {"measurement": "decrease of D27 relative expression vs mock", "setting": "D27; [7]", "result": "~77", "unit": "%"}, {"measurement": "D27 relative expression", "setting": "D27; zas mutant rice roots, 5.0 μM zaxinone, zas mock approx. 3.25", "result": "approximately 0.75"}, {"measurement": "decrease of MAX1-Os900 relative expression vs mock", "setting": "MAX1-Os900; WT rice roots, 2.5 μM zaxinone", "result": "approximately 75%"}, {"measurement": "MAX1-Os900 relative expression", "setting": "MAX1-Os900; [3]", "result": "approximately 0.25"}, {"measurement": "decrease of MAX1-Os900 relative expression vs mock", "setting": "MAX1-Os900; WT rice roots, 5.0 μM zaxinone", "result": "~60", "unit": "%"}, {"measurement": "MAX1-Os900 relative expression", "setting": "MAX1-Os900; [4]", "result": "approximately 0.4"}, {"measurement": "decrease of MAX1-Os900 relative expression vs mock", "setting": "MAX1-Os900; [5]", "result": "approximately 43%"}, {"measurement": "MAX1-Os900 relative expression", "setting": "MAX1-Os900; zas mutant rice roots, 2.5 μM zaxinone, zas mock approx. 2.1", "result": "approximately 1.2"}, {"measurement": "decrease of MAX1-Os900 relative expression vs mock", "setting": "MAX1-Os900; [7]", "result": "~57", "unit": "%"}, {"measurement": "MAX1-Os900 relative expression", "setting": "MAX1-Os900; zas mutant rice roots, 5.0 μM zaxinone, zas mock approx. 2.1", "result": "approximately 0.9"}, {"measurement": "AM colonization capacity", "setting": "[2]; 5 μM zaxinone", "result": "did not improve"}, {"measurement": "growth vs Mock treatment", "setting": "[2]; WT mycorrhizal plants, 5 μM zaxinone twice a week, five weeks", "result": "did not significantly differ"}, {"measurement": "crown root number, root biomass, shoot length and shoot biomass", "setting": "[2]; zas mutant mycorrhizal plants, 5 μM zaxinone twice a week, five weeks", "result": "significant increase"}]}
